Data taken from ChEMBL document CHEMBL1255270, “Relationship between antibiotic use and incidence of MexXY-OprM overproducers among clinical isolates of Pseudomonas aeruginosa” (2008).
Converted amounts (≈) assume the structure as drawn.

Columns and labels:
Format in all cases: functional
[1] = test system: Pseudomonas aeruginosa; experiment: Antimicrobial activity against mexXY-OprM-overproducing Pseudomonas aeruginosa PAO1
[2] = test system: Pseudomonas aeruginosa; experiment: Antimicrobial activity against mexXY-OprM-overproducing Pseudomonas aeruginosa clinical isolate
[3] = test system: Pseudomonas aeruginosa; experiment: Antimicrobial activity against MexXY-OprM-overproducing Pseudomonas aeruginosa PAO1 harboring MexY and MexZ mutant gene selected after 4 ug/ml of cefepime exposure
[4] = test system: Pseudomonas aeruginosa; experiment: Antimicrobial activity against MexXY-OprM-overproducing Pseudomonas aeruginosa PAO1 harboring MexY agrZ mutant and MexZ mutant gene selected after 1 ug/ml of tobramycin exposure
[5] = test system: Pseudomonas aeruginosa; experiment: Antimicrobial activity against MexXY-OprM-overproducing Pseudomonas aeruginosa PAO1 harboring MexY and MexZ mutant gene selected after 0.25 ug/ml of ciprofloxacin exposure
[6] = test system: Pseudomonas aeruginosa; experiment: Antimicrobial activity against MexXY-OprM-overproducing Pseudomonas aeruginosa PAO1 harboring MexY agrW mutant and MexZ mutant gene selected after 8 ug/ml of amikacin exposure
[7] = test system: Pseudomonas aeruginosa; experiment: Antimicrobial activity against MexXY-OprM-overproducing Pseudomonas aeruginosa PAO1 harboring MexY and MexZ mutant gene selected after 8 ug/ml of amikacin exposure
[8] = test system: Pseudomonas aeruginosa; experiment: Antimicrobial activity against MexXY-OprM-overproducing Pseudomonas aeruginosa PAO1 harboring MexY agrZ mutant and MexZ mutant gene selected after 1 ug/ml of Norfloxacin exposure
[9] = test system: Pseudomonas aeruginosa; experiment: Antimicrobial activity against MexXY-OprM-overproducing Pseudomonas aeruginosa PAO1 harboring MexY agrW mutant and MexZ mutant gene selected after 4 ug/ml of cefepime exposure
[10] = test system: Pseudomonas aeruginosa; experiment: Antimicrobial activity against MexXY-OprM-overproducing Pseudomonas aeruginosa PAO1 harboring MexY agrW mutant and MexZ mutant gene selected after 0.25 ug/ml of ciprofloxacin exposure
[11] = test system: Pseudomonas aeruginosa; experiment: Antimicrobial activity against mexXY-OprM-overproducing Pseudomonas aeruginosa isolate PA/XY assessed as zone of inhibition by disk diffusion method
[12] = test system: Pseudomonas aeruginosa; experiment: Antimicrobial activity against MexXY-OprM-overproducing Pseudomonas aeruginosa PAO1 harboring MexY agrW mutant and MexZ mutant gene selected after 1 ug/ml of oflaxacin exposure
[13] = test system: Pseudomonas aeruginosa; experiment: Antimicrobial activity against MexXY-OprM-overproducing Pseudomonas aeruginosa PAO1 harboring MexY agrZ mutant and MexZ mutant gene selected after 4ug/ml of gentamycin exposure

Molecule: GENTAMICIN
- MIC [1]: 4 µg/mL
- MIC [2]: 2 µg/mL
- MIC [3]: 8 µg/mL
- MIC [4]: 8 µg/mL
- MIC [5]: 8 µg/mL
- MIC [6]: 8 µg/mL
- MIC [7]: 8 µg/mL
- MIC [8]: 8 µg/mL
- MIC [9]: 8 µg/mL
- MIC [10]: 8 µg/mL
- inhibition zone (IZ) [11]: < 20 mm
- MIC [12]: 8 µg/mL
- MIC [13]: 8 µg/mL

Molecule: NC[C@H]1O[C@H](O[C@H]2[C@H](O)[C@@H](O[C@H]3O[C@H](CO)[C@@H](O)[C@H](N)[C@H]3O)[C@H](N)C[C@@H]2N)[C@H](N)C[C@@H]1O [TOBRAMYCIN]
- MIC [1]: 1 µg/mL (≈ 2.14 µM)
- MIC [2]: 1 µg/mL (≈ 2.14 µM)
- MIC [3]: 2 µg/mL
- MIC [4]: 2 µg/mL
- MIC [5]: 2 µg/mL
- MIC [6]: 2 µg/mL
- MIC [7]: 2 µg/mL
- MIC [8]: 2 µg/mL
- MIC [9]: 2 µg/mL
- MIC [10]: 2 µg/mL
- inhibition zone (IZ) [11]: <20 mm
- MIC [12]: 2 µg/mL
- MIC [13]: 2 µg/mL

Molecule: O=C(O)c1cn(C2CC2)c2cc(N3CCNCC3)c(F)cc2c1=O [CIPROFLOXACIN]
- MIC [1]: 0.12 µg/mL (≈ 0.362 µM)

Molecule: CO/N=C(\C(=O)N[C@@H]1C(=O)N2C(C(=O)[O-])=C(C[N+]3(C)CCCC3)CS[C@H]12)c1csc(N)n1
- MIC [1]: 2 µg/mL (≈ 4.16 µM)
- MIC [3]: 4 µg/mL
- MIC [4]: 4 µg/mL
- MIC [5]: 4 µg/mL
- MIC [6]: 4 µg/mL
- MIC [7]: 4 µg/mL
- MIC [8]: 4 µg/mL
- MIC [9]: 4 µg/mL
- MIC [10]: 4 µg/mL
- MIC [12]: 4 µg/mL
- MIC [13]: 4 µg/mL

Molecule: NCC[C@H](O)C(=O)N[C@@H]1C[C@H](N)[C@@H](O[C@H]2O[C@H](CN)[C@@H](O)[C@H](O)[C@H]2O)[C@H](O)[C@H]1O[C@H]1O[C@H](CO)[C@@H](O)[C@H](N)[C@H]1O [AMIKACIN]
- MIC [1]: 4 µg/mL (≈ 6.83 µM)
- MIC [2]: 4 µg/mL (≈ 6.83 µM)
- MIC [3]: 8 µg/mL
- MIC [4]: 8 µg/mL
- MIC [5]: 8 µg/mL
- MIC [6]: 8 µg/mL
- MIC [7]: 8 µg/mL
- MIC [8]: 8 µg/mL
- MIC [9]: 8 µg/mL
- MIC [10]: 8 µg/mL
- inhibition zone (IZ) [11]: <20 mm
- MIC [12]: 8 µg/mL
- MIC [13]: 8 µg/mL
